Reference: article PMC8691714 (Cancer Research Communications, 2021)
Marks after values point to notes of the source that are not given here.

Key:
[1] = parameters: method as in earlier work; details: PBPK model parameter, ref [17, 18] and Drugbank, cited from earlier work
[2] = In vivo pharmacokinetic study in mice, oral ibrutinib (plasma, LC-MS/MS)
Protocol: (§1) Experiments were performed with male and female mice from inbred wild-type strains (FVB, C57BL/6, DBA) or with age- and sex-matched genetically engineered mice with a deficiency of the Cyp3a locus [(8 genes; FVB.129P2-Cyp3a13^tm1Ahs Del (5Cyp3a57-Cyp3a59)1Ahs); ref. [16]; CYP3A^−/−], a deficiency of the intestinal transporter OATP2B1 (ref. [17]; OATP2B1 ^−/−), or the hepatic transporter OATP1B2 (ref. [18]; OATP1B2 ^−/−). […] The studies were approved by the University Laboratory Animal Resources Animal Care and Use Committee at The Ohio State University (Columbus, OH). […] For in vivo studies, drugs were prepared in standard vehicles ([19, 20]). Details regarding the preparation of drugs are provided in the Supplementary Methods.
(§2) Pharmacokinetic studies were performed as described previously ([21]). Further details are provided in the Supplementary Methods.
(§3) The lower limit of quantification was 5 ng/mL, using 5-μL sample volumes. Details regarding the analytic method are provided in the Supplementary Methods.
(§4) Ketoconazole was prepared for oral administration as a 10-mg/mL suspension in PEG400, and cobicistat as a 6-mg/mL suspension in corn oil.
(§5) Pharmacokinetic studies were performed as previously described.
The analytical equipment consisted of a Vanquish UHPLC system, a TSQ Quantum Ultra triple quadrupole mass spectrometer from Thermo Fisher Scientific, and Thermo Trace Finder General Quan system software (version 3.3). An Accucore Vanquish C18 column (100 × 2.1 mm, dp = 1.5 μm; Thermo Fisher Scientific) was protected by a corresponding XBridgeBEH C18, 5-μm guard column. The injection volume of sample was 5.0 μL. The temperature of the autosampler rack was 4 °C, and the temperature of the column was 40 °C. Mobile phase A consisted of water with 0.1% (v/v) formic acid and mobile phase B consisted of acetonitrile: methanol (1:3) with 0.1% (v/v) formic acid. The total run time was 5 min. The mobile phase was delivered at a flow rate of 0.4 mL/min, and the optimized gradient contained time-varying amounts of mobile phase B, as follows: 0-0.5 min, 10% B; 0.5-1.5 min, 95% B; 1.5-2.9 min, 95% B; 2.9-3.0 min, 10% B; and 3.0-5.0 min, 10% B. The mass spectrometric assay settings included a positive voltage applied to the ESI capillary of 3500 V, a capillary temperature of 342 °C, and a vaporizer temperature of 358 °C. Argon was used a collision gas at a pressure of 1.5 mTorr. […] For sample extraction by protein precipitation, 5 µL of plasma, 5 µL of microsomal suspension, or 10 µL of homogenized tissue were added to a tube containing 60 µL of internal standard solution and 20 µL of methanol. Samples were then vortex-mixed, centrifuged at 13,000 rpm for 9.5 min, and supernatants collected and stored frozen until analysis. […] The lower limit of quantification was 5 ng/mL, using 5-µL sample volumes.

[3] = parameters: method as in earlier work; details: PBPK model parameter, ref [17, 18] and Drugbank, cited from earlier work; remark: listed apart in the source
[4] = In vivo pharmacokinetic study in mice, intravenous ibrutinib (plasma); details: female wild-type FVB mice, ibrutinib 1 mg/kg IV; for PCI-45227 AUC(0-last) / PCI-45227 Cmax: mean (SD)
Protocol: as §1, §2, §3, §4, §5

[5] = population PK model estimate, mice
[6] = female CYP3A-/- mice, ibrutinib 10 mg/kg oral, no cotreatment, mean (SE)
[7] = female OATP1B2(-/-) mice, ibrutinib 10 mg/kg PO, no co-treatment, mean (SD)
[8] = female OATP2B1(-/-) mice, ibrutinib 10 mg/kg PO, no co-treatment, mean (SD)
[9] = female wild-type C57BL/6 mice, ibrutinib 10 mg/kg PO, no co-treatment, mean (SD)
[10] = female wild-type DBA mice, ibrutinib 10 mg/kg PO, no co-treatment, mean (SD)
[11] = female wild-type FVB mice, ibrutinib 4 mg/kg oral, cotreatment cobicistat 30 mg/kg, mean (SE)
[12] = female wild-type FVB mice, ibrutinib 10 mg/kg oral single dose, cotreatment cobicistat 30 mg/kg, mean (SE)
[13] = female wild-type FVB mice, ibrutinib 10 mg/kg oral single dose, cotreatment corn oil, mean (SE)
[14] = female wild-type FVB mice, ibrutinib 10 mg/kg oral, cotreatment PEG400, mean (SE)
[15] = female wild-type FVB mice, ibrutinib 10 mg/kg oral, cotreatment cobicistat 30 mg/kg, steady-state, mean (SE)
[16] = female wild-type FVB mice, ibrutinib 10 mg/kg oral, cotreatment corn oil, steady-state, mean (SE)
[17] = female wild-type FVB mice, ibrutinib 10 mg/kg oral, cotreatment ketoconazole 50 mg/kg, mean (SE)
[18] = female wild-type FVB mice, ibrutinib 10 mg/kg oral, no cotreatment, mean (SE)
[19] = female wild-type FVB mice, ibrutinib 30 mg/kg oral, no cotreatment, mean (SE)
[20] = male OATP2B1(-/-) mice, ibrutinib 10 mg/kg PO, no co-treatment, mean (SD)
[21] = male wild-type C57BL/6 mice, ibrutinib 10 mg/kg PO, no co-treatment, mean (SD)
[22] = male wild-type FVB mice, ibrutinib 10 mg/kg PO, co-treatment No Vehicle (cobicistat experiment), mean (SD)
[23] = male wild-type FVB mice, ibrutinib 10 mg/kg PO, co-treatment None (ketoconazole experiment), mean (SD)
[24] = male wild-type FVB mice, ibrutinib 10 mg/kg PO, co-treatment PEG400, mean (SD)
[25] = male wild-type FVB mice, ibrutinib 10 mg/kg PO, co-treatment cobicistat, mean (SD)
[26] = male wild-type FVB mice, ibrutinib 10 mg/kg PO, co-treatment corn oil, mean (SD)
[27] = male wild-type FVB mice, ibrutinib 10 mg/kg PO, co-treatment ketoconazole, mean (SD)

levels of PCI-45227 ([2]; CYP3A-/- mice, oral ibrutinib): almost undetectable levels
PCI-45227: Ibrutinib AUC ratio ([2]; female CYP3A-/- mice, ibrutinib 10 mg/kg oral, no cotreatment): 0.003
PCI-45227 AUC(0-last) [2, 6]: 6.3 (1.7)^c ng/h/mL
PCI-45227 Cmax [2, 6]: 8.2 (2.1)^c ng/mL
PCI-45227: Parent AUC Ratio ([2]; female OATP1B2(-/-) mice, ibrutinib 10 mg/kg PO, no co-treatment): 0.14
PCI-45227 AUC(0-last) [2, 7]: 304 (12) ng*hr/mL
PCI-45227 Cmax [2, 7]: 157 (9) ng/mL
PCI-45227: Parent AUC Ratio ([2]; female OATP2B1(-/-) mice, ibrutinib 10 mg/kg PO, no co-treatment): 1.1
PCI-45227 AUC(0-last) [2, 8]: 1952 (168)** ng*hr/mL
PCI-45227 Cmax [2, 8]: 745 (115)** ng/mL
PCI-45227: Parent AUC Ratio ([2]; female wild-type C57BL/6 mice, ibrutinib 10 mg/kg PO, no co-treatment): 2.1
PCI-45227 AUC(0-last) [2, 9]: 3007 (236) ng*hr/mL
PCI-45227 Cmax [2, 9]: 1373 (70) ng/mL
PCI-45227: Parent AUC Ratio ([2]; female wild-type DBA mice, ibrutinib 10 mg/kg PO, no co-treatment): 0.12
PCI-45227 AUC(0-last) [2, 10]: 343 (52) ng*hr/mL
PCI-45227 Cmax [2, 10]: 234 (47) ng/mL
PCI-45227: Ibrutinib AUC ratio ([2]; female wild-type FVB mice, ibrutinib 4 mg/kg oral, cotreatment cobicistat 30 mg/kg): 0.05
PCI-45227 AUC(0-last) [2, 11]: 56 (22)^c ng/h/mL
PCI-45227 Cmax [2, 11]: 30.7 (12.1)^c ng/mL
PCI-45227: Ibrutinib AUC ratio ([2]; female wild-type FVB mice, ibrutinib 10 mg/kg oral single dose, cotreatment cobicistat 30 mg/kg): 0.05
PCI-45227 AUC(0-last) [2, 12]: 139 (56)^c ng/h/mL
PCI-45227 Cmax [2, 12]: 45 (14)^c ng/mL
PCI-45227: Ibrutinib AUC ratio ([2]; female wild-type FVB mice, ibrutinib 10 mg/kg oral single dose, cotreatment corn oil): 2.0
PCI-45227 AUC(0-last) [2, 13]: 563 (91)^d ng/h/mL
PCI-45227 Cmax [2, 13]: 219 (61)^b ng/mL
PCI-45227: Ibrutinib AUC ratio ([2]; female wild-type FVB mice, ibrutinib 10 mg/kg oral, cotreatment PEG400): 0.87
PCI-45227 AUC(0-last) [2, 14]: 668 (155) ng/h/mL
PCI-45227 Cmax [2, 14]: 246 (54) ng/mL
PCI-45227: Ibrutinib AUC ratio ([2]; female wild-type FVB mice, ibrutinib 10 mg/kg oral, cotreatment cobicistat 30 mg/kg, steady-state): 0.25
PCI-45227 AUC(0-last) [2, 15]: 560 (73)^b ng/h/mL
PCI-45227 Cmax [2, 15]: 211 (65) ng/mL
PCI-45227: Ibrutinib AUC ratio ([2]; female wild-type FVB mice, ibrutinib 10 mg/kg oral, cotreatment corn oil, steady-state): 2.0
PCI-45227 AUC(0-last) [2, 16]: 917 (128) ng/h/mL
PCI-45227 Cmax [2, 16]: 405 (74) ng/mL
PCI-45227: Ibrutinib AUC ratio ([2]; female wild-type FVB mice, ibrutinib 10 mg/kg oral, cotreatment ketoconazole 50 mg/kg): 0.08
PCI-45227 AUC(0-last) [2, 17]: 682 (250) ng/h/mL
PCI-45227 Cmax [2, 17]: 288 (89) ng/mL
PCI-45227: Ibrutinib AUC ratio ([2]; female wild-type FVB mice, ibrutinib 10 mg/kg oral, no cotreatment): 2.5
PCI-45227 AUC(0-last) [2, 18]: 765 (79) ng/h/mL
PCI-45227 Cmax [2, 18]: 447 (45) ng/mL
PCI-45227: Ibrutinib AUC ratio ([2]; female wild-type FVB mice, ibrutinib 30 mg/kg oral, no cotreatment): 1.9
PCI-45227 AUC(0-last) [2, 19]: 3,281 (154) ng/h/mL
PCI-45227 Cmax [2, 19]: 837 (77) ng/mL
PCI-45227: Parent AUC Ratio ([2]; male OATP2B1(-/-) mice, ibrutinib 10 mg/kg PO, no co-treatment): 1.3
PCI-45227 AUC(0-last) [2, 20]: 2236 (160)*** ng*hr/mL
PCI-45227 Cmax [2, 20]: 850 (96)* ng/mL
PCI-45227: Parent AUC Ratio ([2]; male wild-type C57BL/6 mice, ibrutinib 10 mg/kg PO, no co-treatment): 2.4
PCI-45227 AUC(0-last) [2, 21]: 3338 (239) ng*hr/mL
PCI-45227 Cmax [2, 21]: 1252 (97) ng/mL
PCI-45227: Parent AUC Ratio ([2]; male wild-type FVB mice, ibrutinib 10 mg/kg PO, co-treatment No Vehicle (cobicistat experiment)): 2.8
PCI-45227 AUC(0-last) [2, 22]: 1463 (83) ng*hr/mL
PCI-45227 Cmax [2, 22]: 578 (100) ng/mL
PCI-45227: Parent AUC Ratio ([2]; male wild-type FVB mice, ibrutinib 10 mg/kg PO, co-treatment None (ketoconazole experiment)): 2.5
PCI-45227 AUC(0-last) [2, 23]: 1080 (153) ng*hr/mL
PCI-45227 Cmax [2, 23]: 333 (112) ng/mL
PCI-45227: Parent AUC Ratio ([2]; male wild-type FVB mice, ibrutinib 10 mg/kg PO, co-treatment PEG400): 1.5
PCI-45227 AUC(0-last) [2, 24]: 929 (164) ng*hr/mL
PCI-45227 Cmax [2, 24]: 293 (69) ng/mL
PCI-45227: Parent AUC Ratio ([2]; male wild-type FVB mice, ibrutinib 10 mg/kg PO, co-treatment cobicistat): 0.096
PCI-45227 AUC(0-last) [2, 25]: 417 (60)*** ng*hr/mL
PCI-45227 Cmax [2, 25]: 124 (34)* ng/mL
PCI-45227: Parent AUC Ratio ([2]; male wild-type FVB mice, ibrutinib 10 mg/kg PO, co-treatment corn oil): 1.7
PCI-45227 AUC(0-last) [2, 26]: 1124 (152)^a ng*hr/mL
PCI-45227 Cmax [2, 26]: 308 (70) ng/mL
PCI-45227: Parent AUC Ratio ([2]; male wild-type FVB mice, ibrutinib 10 mg/kg PO, co-treatment ketoconazole): 0.14
PCI-45227 AUC(0-last) [2, 27]: 911 (94) ng*hr/mL
PCI-45227 Cmax [2, 27]: 236 (37) ng/mL
levels of PCI-45227 ([2]; mice lacking OATP2B1 vs wild-type, ibrutinib 10 mg/kg orally, P < 0.05): decreased
levels of PCI-45227 and PCI-45227-to-ibrutinib ratio ([2]; wild-type mice, cobicistat pretreatment): significantly decreased
PCI-45227: Parent AUC Ratio ([4]; co-treatment cobicistat): 0.04
PCI-45227 AUC(0-last) ([4]; co-treatment cobicistat): 38 (27) ng*hr/mL
PCI-45227 Cmax ([4]; co-treatment cobicistat): 25 (11) ng/mL
PCI-45227 AUC(0-last) ([4]; co-treatment corn oil): 311 (15) ng*hr/mL
PCI-45227 Cmax ([4]; co-treatment corn oil): 197 (5) ng/mL
IIV CLm ([5]; inter-individual variability): 0.0242
IIV Vm ([5]; inter-individual variability): 1.38
Fmet (metabolism of PCI-45227) [5]: 0.0216
Vm (volume of distribution for the central compartment of PCI-45227) [5]: 0.0578
RV PCI ([5]; residual variability): 0.730
Structure (SMILES): Nc1ncnc2c1c(-c1ccc(Oc3ccccc3)cc1)nn2[C@@H]1CCCN(C(=O)C(O)CO)C1 (some centres unmarked) [PCI-45227]
B/P ratio ([1]; blood to plasma ratio): 0.790
fu, plasma ([1]; unbound drug in the plasma): 0.056
pKa ([3]; acid dissociation constant): 4.06
Log Po:w ([3]; octanol/water partition coefficient): 2.21
